Data from PMC7215599, “Synthesis, Antitumor Evaluation, Molecular Modeling and Quantitative Structure–Activity Relationship (QSAR) of Novel 2-[(4-Amino-6-N-substituted-1,3,5-triazin-2-yl)methylthio]-4-chloro-5-methyl-N-(1H-benzo[d]imidazol-2(3H)-ylidene)Benzenesulfonamides” (International Journal of Molecular Sciences, 2020).

Key:
[1] = system: HCT-116 (colon cancer) cell line; assay: MTT cell viability assay, HCT-116; assay type: cell-based, human; conditions: MTT, 72 h, 1-100 µM, mean ± SD
Experimental: (§1) Compounds 6–49 were evaluated in vitro for their effects on the viability of the three human cancer cell lines: HCT-116 (colon cancer), MCF-7 (breast cancer) and HeLa (cervical cancer) as well as the non-cancerous keratinocyte cell line (HaCaT). The concentration required for 50% inhibition of cell viability IC50 was calculated and compared with the reference drug cisplatin, the results are shown in Table 1.
(§2) Cell lines: colon cancer (HCT-116), breast cancer (MCF-7), cervical cancer (HeLa), the human keratinocyte cell line (HaCaT); NT—not tested; IC50 was measured at concentrations 1, 10, 25, 50, and 100 µM. IC50 values are expressed as the mean ± SD of at last three independent experiments.
(§3) All chemicals, if not stated otherwise, were obtained from Sigma–Aldrich (St. Louis, MO, USA). The HCT-116 cell lines was purchased from ATCC (ATCC-No: CCL-247), while the MCF-7, HeLa and HaCaT cell lines were purchased from Cell Lines Services (Eppelheim, Germany). Cells were cultured in Dulbecco’s modified Eagle’s medium (DMEM) supplemented with 10% fetal bovine serum, 2 mM glutamine, 100 units/mL penicillin, and 100 µg/mL streptomycin. Cultures were maintained in a humidified atmosphere with 5% carbon dioxide at 37 °C in an incubator (Heraceus, HeraCell).
(§4) Cell viability was examined using the MTT (3-(4,5-dimethylthiazol-2-yl)-2,5-diphenyltetrazolium bromide) assay. Cells were seeded in 96-well plates at a density of 5 × 10^3 cells/well and treated for 72 h with the tested compounds in the concentration range of 1–100 µM (1, 10, 25, 50 and 100 µM). Then, MTT (0.5 mg/mL) was added to the medium and cells were further incubated for 2 h at 37 °C. In the next stage, cells were lysed with DMSO and the absorbance of the formazan solution was measured at 550 nm with a plate reader (1420 multilabel counter, Victor, Jügesheim, Germany). The experiment was performed in triplicate. Values are expressed as the mean ± SD of at least three independent experiments. Cisplatin was used as a positive control.

[2] = system: MCF-7 (breast cancer) cell line; assay: MTT cell viability assay, MCF-7; assay type: cell-based, human; conditions: MTT, 72 h, 1-100 µM, mean ± SD
Experimental: as §1, §2, §3, §4

[3] = system: HeLa (cervical cancer) cell line; assay: MTT cell viability assay, HeLa; assay type: cell-based, human; conditions: 72 h, MTT, 1-100 µM, mean ± SD
Experimental: as §1, §2, §3, §4

[4] = system: HaCaT (non-cancerous keratinocyte cell line); assay: MTT cell viability assay, HaCaT; assay type: cell-based; conditions: Homo sapiens, 72 h, 1-100 µM, mean ± SD, non-cancerous cells
Experimental: as §1, §2, §3, §4

Compound: Cc1cc(S(=O)(=O)N=c2[nH]c3ccccc3[nH]2)c(SCc2nc(N)nc(N(C)c3ccc(Cl)cc3)n2)cc1Cl [Compound 17, 2-[{4-Amino-6-[(4-chlorophenyl)(methyl)amino]-1,3,5-triazin-2-yl}methylthio]-N-(1H-benzo[d]imidazol-2(3H)-ylidene)-4-chloro-5-methylbenzenesulfonamide]
- IC50 ([1]; Homo sapiens, HCT-116, 72 h): 29 ± 1 µM
- IC50 ([2]; Homo sapiens, MCF7, 72 h): 31 ± 1 µM
- IC50 ([3]; Homo sapiens, HeLa): 30 ± 1 µM
- IC50 [4]: 43 ± 2 µM

Compound: Cc1cc(S(=O)(=O)N=c2[nH]c3ccccc3[nH]2)c(SCc2nc(N)nc(N(C)C)n2)cc1Cl [Compound 6, 2-{[4-Amino-6-(dimethylamino)-1,3,5-triazin-2-yl]methylthio}-N-(1H-benzo[d]imidazol-2(3H)-ylidene)-4-chloro-5-methylbenzenesulfonamide]
- IC50 ([1]; Homo sapiens, HCT-116, 72 h): 49 ± 1 µM
- IC50 ([2]; Homo sapiens, MCF7, 72 h): 52 ± 1 µM
- IC50 ([3]; Homo sapiens, HeLa): 50 ± 2 µM
- IC50 [4]: 57 ± 3 µM

Compound: Cc1cc(S(=O)(=O)N=c2[nH]c3ccc(F)cc3[nH]2)c(SCc2nc(N)nc(N3CCN(c4ccc(Cl)c(Cl)c4)CC3)n2)cc1Cl [Compound 40, 2-[{4-Amino-6-[4-(3,4-dichlorophenyl)piperazin-1-yl]-1,3,5-triazin-2-yl}metylthio]-4-chloro-N-(5-fluoro-1H-benzo[d]imidazol-2(3H)-ylidene)-5-methylbenzenesulfonamide]
- IC50 ([1]; Homo sapiens, HCT-116, 72 h): 16 ± 1 µM
- IC50 ([2]; Homo sapiens, MCF7, 72 h): 43 ± 1 µM
- IC50 ([3]; Homo sapiens, HeLa): 18 ± 1 µM
- IC50 [4]: 46 ± 1 µM

Compound: Cc1cc(S(=O)(=O)N=c2[nH]c3ccccc3[nH]2)c(SCc2nc(N)nc(N3CCN(c4ccc(F)c(Cl)c4)CC3)n2)cc1Cl [Compound 26, 2-[{4-Amino-6-[4-(3-chloro-4-fluorophenyl)piperazin-1-yl]-1,3,5-triazin-2-yl}methylthio]-N-(1H-benzo[d]imidazol-2(3H)-ylidene)-4-chloro-5-methylbenzenesulfonamide]
- IC50 ([1]; Homo sapiens, HCT-116, 72 h): 17 ± 0.5 µM
- IC50 ([2]; Homo sapiens, MCF7, 72 h): 20 ± 1 µM
- IC50 ([3]; Homo sapiens, HeLa): 21 ± 0.4 µM
- IC50 [4]: 35 ± 1 µM

Compound: COc1ccc(Nc2nc(N)nc(CSc3cc(Cl)c(C)cc3S(=O)(=O)N=c3[nH]c4ccc(Cl)cc4[nH]3)n2)cc1 [Compound 44, 2-[{4-Amino-6-[(4-methoxyphenyl)amino]-1,3,5-triazin-2-yl}methylthio]-4-chloro-N-(5-chloro-1H-benzo[d]imidazol-2(3H)-ylidene)-5-methylbenzenesulfonamide]
- IC50 ([1]; Homo sapiens, HCT-116, 72 h): 48 ± 1 µM
- IC50 ([2]; Homo sapiens, MCF7, 72 h): 47 ± 2 µM
- IC50 ([3]; Homo sapiens, HeLa): 50 ± 2 µM
- IC50 [4]: 61 ± 2 µM

Compound: Cc1cc(S(=O)(=O)N=c2[nH]c3ccccc3[nH]2)c(SCc2nc(N)nc(Nc3ccc(Cl)cc3)n2)cc1Cl [Compound 13, 2-[{4-Amino-6-[(4-chlorophenyl)amino]-1,3,5-triazin-2-yl}metylthio]-N-(1H-benzo[d]imidazol-2(3H)-ylidene)-4-chloro-5-methylbenzenesulfonamide]
- IC50 ([1]; Homo sapiens, HCT-116, 72 h): 32 ± 1 µM
- IC50 ([2]; Homo sapiens, MCF7, 72 h): 24 ± 1 µM
- IC50 ([3]; Homo sapiens, HeLa): 35 ± 1 µM
- IC50 [4]: 41 ± 2 µM

Compound: COc1ccc(Nc2nc(N)nc(CSc3cc(Cl)c(C)cc3S(=O)(=O)N=c3[nH]c4ccccc4[nH]3)n2)cc1 [Compound 14, 2-[{4-Amino-6-[(4-methoxyphenyl)amino]-1,3,5-triazin-2-yl}metylthio]-N-(1H-benzo[d]imidazol-2(3H)-ylidene)-4-chloro-5-methylbenzenesulfonamide]
- IC50 ([1]; Homo sapiens, HCT-116, 72 h): 54 ± 2 µM
- IC50 ([2]; Homo sapiens, MCF7, 72 h): 41 ± 1 µM
- IC50 ([3]; Homo sapiens, HeLa): 56 ± 2 µM
- IC50 [4]: 65 ± 3 µM

Compound: Cc1cc(S(=O)(=O)N=c2[nH]c3ccccc3[nH]2)c(SCc2nc(N)nc(NCc3ccccc3)n2)cc1Cl [Compound 15, 2-{[4-Amino-6-(benzylamino)-1,3,5-triazin-2-yl]metylthio}-N-(1H-benzo[d]imidazol-2(3H)-ylidene)-4-chloro-5-methylbenzenesulfonamide]
- IC50 ([1]; Homo sapiens, HCT-116, 72 h): 22 ± 1 µM
- IC50 ([2]; Homo sapiens, MCF7, 72 h): 27 ± 1 µM
- IC50 ([3]; Homo sapiens, HeLa): > 100 µM
- IC50 [3]: 92 ± 2 µM

Compound: Cc1cc(S(=O)(=O)N=c2[nH]c3ccccc3[nH]2)c(SCc2nc(N)nc(N3CCN(c4ccc([N+](=O)[O-])cc4)CC3)n2)cc1Cl [Compound 29, 2-[{4-Amino-6-[4-(4-nitrophenyl)piperazin-1-yl]-1,3,5-triazin-2-yl}metylthio]-N-(1H-benzo[d]imidazol-2(3H)-ylidene)-4-chloro-5-methylbenzenesulfonamide]
- IC50 ([1]; Homo sapiens, HCT-116, 72 h): > 100 µM
- IC50 [1]: 195 ± 4 µM
- IC50 ([2]; Homo sapiens, MCF7, 72 h): > 100 µM
- IC50 [2]: 134 ± 9 µM
- IC50 ([3]; Homo sapiens, HeLa): > 100 µM
- IC50 [3]: 56 ± 2 µM
